These compounds were tested against T1, glutathione S-transferase (GST)-fused full-length human Syk protein (Homo sapiens, UniProt P43405) (assay: Syk enzyme assay). Settings: Syk enzyme assay, Test Example 1; read-out: IC50 of Syk-inhibitory activity.
T1 construct: (GST)-fused full-length human Syk protein; GST (glutathione S-transferase); purchased Carna Biosciences
Type: biochemical
Procedure: A glutathione S-transferase (GST)-fused full-length human Syk protein (Carna Biosciences), which had been generated using a Baculovirus expression system, was used in the Syk enzyme assay.
15 μl of a reaction solution (1.2 ng Syk, 20 mM HEPES, 10 mM MgCl2, 50 mM NaCl, 2 mM DTT, 0.05% BSA, pH 7.0) containing a Syk protein and a predetermined concentration of a test compound was shaken for 2 minutes, and it was then left at rest at room temperature for 13 minutes. Thereafter, 5 μl of Biotin-EDPDYEWPSA-NH2 (final concentration: 0.4 μM) serving as a substrate peptide and 5 μl of ATP (final concentration: 27 μM) were added to the reaction solution, and the obtained mixture was then shaken for 2 minutes. The reaction solution was further left at rest at room temperature for 40 minutes, so as to carry out an enzyme reaction.
Thereafter, 50 μl of a reaction termination solution [5 μg/ml Streptavidin, 0.18 μg/ml PT66-K, 30 mM HEPES (pH 7.0), 150 mM KF, 75 mM EDTA, 0.15% BSA, 0.075% Tween20], which contained Streptavidin-Xlent (Cisbio) and Mab PT66-K (Cisbio), was added to the reaction solution to terminate the enzyme reaction. At the same time, the reaction solution was left at rest at room temperature for 1 hour, so as to carry out an antigen-antibody reaction. Thereafter, using EnVision (PerkinElmer), the time-resolved fluorescence was measured at 615 nm and 665 nm, so that the phosphorylation of the substrate peptide was measured.
In addition, the following are standards for evaluating IC50 of Syk-inhibitory activity used in Table 21. • A: Up to 10 nM • B: 10 to 50 nM • C: 50 to 100 nM • D: 100 to 1000 nM The set of numbers (XYZ-xyz) given in each Example number column indicates the corresponding Example number (Example XYZ-xyz) in Table 21.

| IC50 | SMILES |
| --- | --- |
| 0.01 to 0.05 µM | COCCn1ncc2cc(Nc3nc(N[C@H](C)[C@H](C)N)c(F)cc3C(N)=O)ccc21 (racemic) [Example 006-197, 6-(((2R,3S)-3-aminobutan-2-yl)amino)-5-fluoro-2-((1-(2-methoxyethyl)-1H-indazol-5-yl)amino)nicotinamide 6-(((2S,3R)-3-aminobutan-2-yl)amino)-5-fluoro-2-((1-(2-methoxyethyl)-1H-indazol-5-yl)amino)nicotinamide] |
| 0.01 to 0.05 µM | CC(=O)Nc1cc(Nc2nc(N[C@@H]3CCCC[C@@H]3N)c(F)cc2C(N)=O)ccn1 (relative stereo) [Example 004-048] |
| 0.01 to 0.05 µM | CN1CCN(c2cncc(Nc3nc(N[C@@H]4CCCC[C@@H]4N)c(F)cc3C(N)=O)c2)CC1 (relative stereo) [Example 004-052] |
| < 0.01 µM | Cc1cc(Nc2nc(N[C@@H]3CCCC[C@@H]3N)c(F)cc2C(N)=O)cs1 (relative stereo) [Example 004-057] |
| < 0.01 µM | NC(=O)c1cc(F)c(N[C@@H]2CCCC[C@@H]2N)nc1Nc1cc(N2CCOCC2)nc2[nH]ccc12 (relative stereo) [Example 004-066, 6-(cis-2-aminocyclohexylamino)-5-fluoro-2-((6-morpholino-1H-pyrrolo[2,3-b]pyridin-4-yl)-amino)nicotinamide] |
| < 0.01 µM | NC(=O)c1cc(F)c(N[C@@H]2CCCC[C@@H]2N)nc1Nc1cc(-n2nccn2)nc2[nH]ccc12 (relative stereo) [Example 004-067, 2-((6-(2H-1,2,3-triazol-2-yl)-1H-pyrrolo[2,3-b]pyridin-4-yl)amino)-6-(cis-2-aminocyclohexylamino)-5-fluoronicotinamide] |
| < 0.01 µM | NC(=O)c1cc(F)c(N[C@@H]2CCCC[C@@H]2N)nc1Nc1ccc2[nH]ccc2c1 (relative stereo) [Example 004-070, 2-((1H-indol-5-yl)amino)-6-(cis-2-aminocyclohexylamino)-5-fluoronicotinamide] |
| < 0.01 µM | NC(=O)c1cc(F)c(N[C@@H]2CCCC[C@@H]2N)nc1Nc1cc(F)c2c(ccn2CCN2CCOCC2)c1 (relative stereo) [Example 004-080, 6-(cis-2-aminocyclohexylamino)-5-fluoro-2-((7-fluoro-1-(2-morpholinoethyl)-1H-indol-5-yl)amino)nicotinamide] |
| < 0.01 µM | COCCn1ccc2cc(Nc3nc(N[C@@H]4CCCC[C@@H]4N)c(F)cc3C(N)=O)cc(F)c21 (relative stereo) [Example 004-081, 6-(cis-2-aminocyclohexylamino)-5-fluoro-2-((7-fluoro-1-(2-methoxyethyl)-1H-indol-5-yl)-amino)nicotinamide] |
| < 0.01 µM | NC(=O)c1cc(F)c(N[C@@H]2CCCC[C@@H]2N)nc1Nc1cc(F)cc2c1ccn2CCN1CCOCC1 (relative stereo) [Example 004-083, 6-(cis-2-aminocyclohexylamino)-5-fluoro-2-((6-fluoro-1-(2-morpholinoethyl)-1H-indol-4-yl)amino)nicotinamide] |
| < 0.01 µM | COCCn1ccc2c(Nc3nc(N[C@@H]4CCCC[C@@H]4N)c(F)cc3C(N)=O)cc(F)cc21 (relative stereo) [Example 004-084, 6-(cis-2-aminocyclohexylamino)-5-fluoro-2-((6-fluoro-1-(2-methoxyethyl)-1H-indol-4-yl)amino)nicotinamide] |
| < 0.01 µM | NC(=O)c1cc(F)c(N[C@@H]2CCCC[C@@H]2N)nc1Nc1cc(C(F)(F)F)cc2[nH]ccc12 (relative stereo) [Example 004-085, 6-(cis-2-aminocyclohexylamino)-5-fluoro-2-((6-(trifluoromethyl)-1H-indol-4-yl)amino)-nicotinamide] |
| 0.01 to 0.05 µM | NC(=O)c1cc(F)c(N[C@@H]2CCCC[C@@H]2N)nc1Nc1ccc2c(cnn2CC2CC2)c1 (relative stereo) [Example 004-090, 6-(cis-2-aminocyclohexylamino)-2-((1-(cyclopropylmethyl)-1H-indazol-5-yl)amino)-5-fluoronicotinamide] |
| 0.01 to 0.05 µM | NC(=O)c1cc(F)c(N[C@@H]2CCCC[C@@H]2N)nc1Nc1cncc(C(F)(F)F)c1 (relative stereo) [Example 004-098, 6-(cis-2-aminocyclohexylamino)-5-fluoro-2-((5-(trifluoromethyl)pyridin-3-yl)amino)-nicotinamide] |
| < 0.01 µM | Cc1cccc(-c2cncc(Nc3nc(N[C@@H]4CCCC[C@@H]4N)c(F)cc3C(N)=O)c2)c1 (relative stereo) [Example 004-099, 6-(cis-2-aminocyclohexylamino)-5-fluoro-2-((5-(3-methylphenyl)pyridin-3-yl)amino)-nicotinamide] |
| < 0.01 µM | Cc1ccc(-c2cncc(Nc3nc(N[C@@H]4CCCC[C@@H]4N)c(F)cc3C(N)=O)c2)cc1 (relative stereo) [Example 004-100, 6-(cis-2-aminocyclohexylamino)-5-fluoro-2-((5-(4-methylphenyl)pyridin-3-yl)amino)-nicotinamide] |
| 0.01 to 0.05 µM | Cc1ccccc1-c1cncc(Nc2nc(N[C@@H]3CCCC[C@@H]3N)c(F)cc2C(N)=O)c1 (relative stereo) [Example 004-101, 6-(cis-2-aminocyclohexylamino)-5-fluoro-2-((5-(2-methylphenyl)pyridin-3-yl)amino)-nicotinamide] |
| 0.05 to 0.1 µM | NC(=O)c1cc(F)c(N[C@@H]2CCCC[C@@H]2N)nc1Nc1ccc(C(F)(F)F)nc1 (relative stereo) [Example 004-102, 6-(cis-2-aminocyclohexylamino)-5-fluoro-2-((6-(trifluoromethyl)pyridin-3-yl)amino)-nicotinamide] |
| 0.1 to 1 µM | NC(=O)c1cc(F)c(N[C@@H]2CCCC[C@@H]2N)nc1Nc1cncc(N2CCCCC2=O)c1 (relative stereo) [Example 004-108, 6-(cis-2-aminocyclohexylamino)-5-fluoro-2-((5-(2-oxopiperidine-1-yl)pyridin-3-yl)amino)-nicotinamide] |
| < 0.01 µM | NC(=O)c1cc(F)c(N[C@@H]2CCCC[C@@H]2N)nc1Nc1cncc(-c2cccc(OCCN3CCOCC3)c2)c1 (relative stereo) [Example 004-110, 6-(cis-2-aminocyclohexylamino)-5-fluoro-2-((5-(3-(2-morpholinoethoxy)phenyl)pyridin-3-yl)amino)nicotinamide] |
| < 0.01 µM | COCCOc1ccc(-c2cncc(Nc3nc(N[C@@H]4CCCC[C@@H]4N)c(F)cc3C(N)=O)c2)cc1 (relative stereo) [Example 004-111, 6-(cis-2-aminocyclohexylamino)-5-fluoro-2-((5-(4-(2-methoxyethoxy)phenyl)pyridin-3-yl)-amino)nicotinamide] |
| < 0.01 µM | NC(=O)c1cc(F)c(N[C@@H]2CCCC[C@@H]2N)nc1Nc1cncc(-c2ccc(OCCN3CCOCC3)cc2)c1 (relative stereo) [Example 004-112, 6-(cis-2-aminocyclohexylamino)-5-fluoro-2-((5-(4-(2-morpholinoethoxy)phenyl)pyridin-3-yl)amino)nicotinamide] |
| < 0.01 µM | CNc1cccc2cc(Nc3nc(N[C@@H]4CCCC[C@@H]4N)c(F)cc3C(N)=O)cnc12 (relative stereo) [Example 004-116, 6-(cis-2-aminocyclohexylamino)-5-fluoro-2-((8-(methylamino)quinolin-3-yl)amino)-nicotinamide] |
| < 0.01 µM | Cn1ccc(-c2cncc(Nc3nc(N[C@@H]4CCCC[C@@H]4N)c(F)cc3C(N)=O)c2)c1 (relative stereo) [Example 004-119, 6-(cis-2-aminocyclohexylamino)-5-fluoro-2-((5-(1-methyl-1H-pyrrol-3-yl)pyridin-3-yl)-amino)nicotinamide] |
| < 0.01 µM | COCCOc1cccc2cc(Nc3nc(N[C@@H]4CCCC[C@@H]4N)c(F)cc3C(N)=O)cnc12 (relative stereo) [Example 004-121, 6-(cis-2-aminocyclohexylamino)-5-fluoro-2-((8-(2-methoxyethoxy)quinolin-3-yl)amino)-nicotinamide] |
| < 0.01 µM | NC(=O)c1cc(F)c(N[C@@H]2CCCC[C@@H]2N)nc1Nc1cnc2c(O)cccc2c1 (relative stereo) [Example 004-124, 6-(cis-2-aminocyclohexylamino)-5-fluoro-2-((8-hydroxyquinolin-3-yl)amino)nicotinamide] |

Same assay, conditions: read-out: Syk-inhibitory activity (IC50)

| IC50 | SMILES |
| --- | --- |
| ≤ 1 µM | NC(=O)c1cc(F)c(N[C@@H]2CCCC[C@@H]2N)nc1Nc1ccc(-c2ccccc2)nc1 (relative stereo) [Example 2-9, 6-(cis-2-aminocyclohexylamino)-5-fluoro-2-((6-phenylpyridin-3-yl)amino)nicotinamide] |
| ≤ 1 µM | COc1ccc(Nc2nc(N[C@@H]3CCCC[C@@H]3N)c(F)cc2C(N)=O)cn1 (relative stereo) [Example 2-10, 6-(cis-2-aminocyclohexylamino)-5-fluoro-2-((6-methoxypyridin-3-yl)amino)nicotinamide] |

Source: patent US8895585B2, “Nicotinamide derivative or salt thereof” (FUJIFILM Corporation, priority 2010, dated 2014)
